Values quoted from earlier work in article PMC4854401, “Biochemical Mechanisms for Geographical Adaptations to Novel Toxin Exposures in Butterflyfish” (PLoS ONE, 2016).

Test system: CYP activity
Design: method as in PMID 24272422
Details: black swallowtails (Papilio polyxenes), dose-dependent; cited from earlier work

SMILES: COc1c2occc2cc2ccc(=O)oc12 [xanthotoxin]
- induced CYP activity, increase: seven fold
